Reference: PMC9116648, “Synthesis and biological evaluation of thiazolidine-2-thione derivatives as novel xanthine oxidase inhibitors” (PLoS ONE, 2022)
Entries after “also recorded” stand apart in the source; their conditions may differ. Where two headings read alike, the source gives them in different places.

Tests used:
Xanthine oxidase (XO) [1] = target: T1, Xanthine oxidase (XO) (Homo sapiens, UniProt P47989); test: In vitro XO inhibitory potency (enzyme catalysis reaction, OD 295 nm); assay type: biochemical
Description: XO inhibitory activity was measured by enzyme catalysis reaction in vitro, with modifications. The XO solution (100 U/L) and xanthine solution (0.5 mmol/L) were prepared in PBS (10 mmol/L, pH = 7.4) and stored at 4°C. The test compounds were diluted to different concentrations with PBS. The enzyme catalysis reaction was performed in 96-well plates.

Xanthine oxidase (XO) [2] = target: T1, Xanthine oxidase (XO); test: Enzyme inhibitory kinetics (Lineweaver-Burk plots); assay type: biochemical
Description: The inhibitory mode of representative compound 6k was further investigated using enzyme inhibitory kinetic studies. XO solution (55 U/L) was mixed respectively with compound 6k (0, 5, 10, and 20 μmol/L) and incubated at 37°C for 5 min. Then, xanthine solution (0.25, 0.5, 1.0, and 2.0 mmol/L) were added to initiate the reaction at 37°C for 30 min. The reaction was carried out in a 96-well plate and the OD value were read using a microplate reader at 295 nm. The obtained data were analyzed using Microsoft Excel 2013 and transformed into Lineweaver-Burk plots using GraphPad Prism 7.0. In addition, the value of Ki and Kis could be calculated using GraphPad Prism 7.0.

Xanthine oxidase (XO) [3] = target: T1, Xanthine oxidase (XO); details: literature statement; cited from earlier work
[4] = S1 Table, mean of three determinations, unit inferred, read-out: IC50 mean
[5] = S1 Table, single determination 1 of 3, unit inferred, read-out: IC50 (first replicate column)
[6] = S1 Table, single determination 2 of 3, unit inferred, read-out: IC50 (second replicate column)
[7] = S1 Table, single determination 3 of 3, unit inferred, read-out: IC50 (third replicate column)
[8] = mean±SD, tested in triplicate, xanthine substrate, 37°C, PBS pH 7.4, read-out: IC50

T1 sequence (P47989 whole entry, species assumed): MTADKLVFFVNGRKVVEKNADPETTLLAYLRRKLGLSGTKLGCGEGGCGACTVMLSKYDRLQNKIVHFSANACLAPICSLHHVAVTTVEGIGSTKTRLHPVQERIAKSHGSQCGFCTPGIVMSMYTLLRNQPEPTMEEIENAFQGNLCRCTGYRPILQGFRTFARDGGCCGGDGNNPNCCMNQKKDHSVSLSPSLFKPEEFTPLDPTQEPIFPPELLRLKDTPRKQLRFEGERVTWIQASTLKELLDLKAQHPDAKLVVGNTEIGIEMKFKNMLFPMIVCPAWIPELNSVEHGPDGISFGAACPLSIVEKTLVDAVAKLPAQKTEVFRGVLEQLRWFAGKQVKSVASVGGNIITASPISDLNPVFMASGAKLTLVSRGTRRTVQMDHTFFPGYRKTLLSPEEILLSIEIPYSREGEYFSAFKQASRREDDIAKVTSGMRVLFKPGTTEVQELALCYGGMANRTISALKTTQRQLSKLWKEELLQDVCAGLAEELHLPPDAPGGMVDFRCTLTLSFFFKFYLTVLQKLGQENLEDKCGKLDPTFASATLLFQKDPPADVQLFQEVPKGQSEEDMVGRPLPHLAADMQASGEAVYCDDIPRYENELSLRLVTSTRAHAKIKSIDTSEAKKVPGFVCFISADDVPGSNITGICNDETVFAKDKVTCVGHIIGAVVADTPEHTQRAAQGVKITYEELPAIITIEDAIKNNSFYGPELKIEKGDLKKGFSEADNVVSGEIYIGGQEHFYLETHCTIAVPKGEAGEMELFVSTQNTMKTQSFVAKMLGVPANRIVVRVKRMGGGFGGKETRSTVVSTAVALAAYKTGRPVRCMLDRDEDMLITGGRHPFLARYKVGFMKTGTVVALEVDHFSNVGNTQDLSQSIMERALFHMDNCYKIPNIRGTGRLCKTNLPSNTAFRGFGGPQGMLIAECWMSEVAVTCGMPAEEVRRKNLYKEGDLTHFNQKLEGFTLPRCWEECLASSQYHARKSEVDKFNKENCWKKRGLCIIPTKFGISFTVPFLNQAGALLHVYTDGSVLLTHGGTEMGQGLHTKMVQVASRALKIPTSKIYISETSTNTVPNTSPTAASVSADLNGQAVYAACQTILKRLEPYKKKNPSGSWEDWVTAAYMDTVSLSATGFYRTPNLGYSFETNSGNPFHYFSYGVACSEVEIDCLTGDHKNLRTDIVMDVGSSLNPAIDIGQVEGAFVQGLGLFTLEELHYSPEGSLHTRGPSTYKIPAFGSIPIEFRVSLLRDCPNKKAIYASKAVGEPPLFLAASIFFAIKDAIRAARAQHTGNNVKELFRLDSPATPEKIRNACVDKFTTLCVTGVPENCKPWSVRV

Cc1nc(-c2ccc(OCC(C)C)c(C#N)c2)sc1C(=O)O [Febuxostat, reference compound]
IC50 (Xanthine oxidase (XO) [1]; IC50 (first replicate column), S1 Table, single determination 1 of 3, unit inferred): 3.02 µM | IC50 (Xanthine oxidase (XO) [1]; IC50 (second replicate column), S1 Table, single determination 2 of 3, unit inferred): 2.91 µM | IC50 (Xanthine oxidase (XO) [1]; IC50 (third replicate column), S1 Table, single determination 3 of 3, unit inferred): 4.08 µM | IC50 (Xanthine oxidase (XO) [1]; IC50, mean±SD, tested in triplicate, xanthine substrate, 37°C, PBS pH 7.4): 3.34 ± 0.53 µM | IC50 (Xanthine oxidase (XO) [1]; IC50 mean, S1 Table, mean of three determinations, unit inferred): 3.34 µM

O=C(NS(=O)(=O)c1ccc(F)cc1)N1CCSC1=S [Compound 6k, N-((4-fluorophenyl)sulfonyl)-2-thioxothiazolidine-3-carboxamide]
IC50 (Xanthine oxidase (XO) [1]; [4]): 3.56 µM | IC50 (Xanthine oxidase (XO) [1]; [5]): 3.19 µM | IC50 (Xanthine oxidase (XO) [1]; [6]): 4.42 µM | IC50 (Xanthine oxidase (XO) [1]; [7]): 3.06 µM | IC50 (Xanthine oxidase (XO) [1]; [8]): 3.56 ± 0.61 µM | XO inhibitory potency relative to allopurinol (fold more potent) (Xanthine oxidase (XO) [1]; ratio of IC50 values vs allopurinol): approximately 2.5 fold | Mode of XO inhibition (Xanthine oxidase (XO) [2]; Lineweaver-Burk plots): mixed-type XO inhibition; also recorded: mixed competitive inhibition; also recorded: mixed-type XO inhibitor | Intercept of Lineweaver-Burk plot (Xanthine oxidase (XO) [2]; compound 6k 5 µmol/L): 1.487 | Slope of Lineweaver-Burk plot (Xanthine oxidase (XO) [2]; compound 6k 5 µmol/L): 3.559 | Intercept of Lineweaver-Burk plot (Xanthine oxidase (XO) [2]; compound 6k 10 µmol/L): 2.126 | Slope of Lineweaver-Burk plot (Xanthine oxidase (XO) [2]; compound 6k 10 µmol/L): 4.587 | Intercept of Lineweaver-Burk plot (Xanthine oxidase (XO) [2]; compound 6k 20 µmol/L): 2.357 | Slope of Lineweaver-Burk plot (Xanthine oxidase (XO) [2]; compound 6k 20 µmol/L): 6.098 | Ki (Xanthine oxidase (XO) [2]; from secondary plot of Lineweaver-Burk slopes, XO 55 U/L): 7.08 µM

CCCNC(=O)N1CCSC1=S [Compound 6b, N-propyl-2-thioxothiazolidine-3-carboxamide]
IC50 (Xanthine oxidase (XO) [1]; [4]): 27.8 µM | IC50 (Xanthine oxidase (XO) [1]; [5]): 27.2 µM | IC50 (Xanthine oxidase (XO) [1]; [6]): 27.6 µM | IC50 (Xanthine oxidase (XO) [1]; [7]): 28.6 µM | IC50 (Xanthine oxidase (XO) [1]; [8]): 27.8 ± 0.63 µM

O=C(Nc1ccccc1)N1CCSC1=S [Compound 6e, N-phenyl-2-thioxothiazolidine-3-carboxamide]
melting point: 101 to 102 °C | IC50 (Xanthine oxidase (XO) [1]; [4]): 10.2 µM | IC50 (Xanthine oxidase (XO) [1]; [5]): 10.6 µM | IC50 (Xanthine oxidase (XO) [1]; [6]): 8.38 µM | IC50 (Xanthine oxidase (XO) [1]; [7]): 11.7 µM | IC50 (Xanthine oxidase (XO) [1]; [8]): 10.2 ± 1.37 µM

Cc1ccc(S(=O)(=O)NC(=O)N2CCSC2=S)cc1 [Compound 6j, N-((4-methylphenyl)sulfonyl)-2-thioxothiazolidine-3-carboxamide]
melting point: 127 to 129 °C | IC50 (Xanthine oxidase (XO) [1]; [4]): 9.76 µM | IC50 (Xanthine oxidase (XO) [1]; [5]): 11.5 µM | IC50 (Xanthine oxidase (XO) [1]; [6]): 8.48 µM | IC50 (Xanthine oxidase (XO) [1]; [7]): 9.27 µM | IC50 (Xanthine oxidase (XO) [1]; [8]): 9.76 ± 1.29 µM

CCCCNC(=O)N1CCSC1=S [Compound 6c, N-butyl-2-thioxothiazolidine-3-carboxamide]
IC50 (Xanthine oxidase (XO) [1]; [4]): 30.5 µM | IC50 (Xanthine oxidase (XO) [1]; [5]): 30.1 µM | IC50 (Xanthine oxidase (XO) [1]; [6]): 33.5 µM | IC50 (Xanthine oxidase (XO) [1]; [7]): 28 µM | IC50 (Xanthine oxidase (XO) [1]; [8]): 30.5 ± 2.25 µM

CCCN1CCSC1=S [Compound 4b, 3-propyl-thiazolidine-2-thione]
IC50 (Xanthine oxidase (XO) [1]; [4]): 58.2 µM | IC50 (Xanthine oxidase (XO) [1]; [5]): 50.5 µM | IC50 (Xanthine oxidase (XO) [1]; [6]): 57.2 µM | IC50 (Xanthine oxidase (XO) [1]; [7]): 66.8 µM | IC50 (Xanthine oxidase (XO) [1]; [8]): 58.2 ± 6.71 µM

Oc1ncnc2[nH]ncc12 [Allopurinol]
Mode of XO inhibition (Xanthine oxidase (XO) [3]): competitive inhibition

O=C(NC1CCCCC1)N1CCSC1=S [Compound 6h, N-cyclohexyl-2-thioxothiazolidine-3-carboxamide]
melting point: 114 to 115 °C | IC50 (Xanthine oxidase (XO) [1]; [4]): 9.87 µM | IC50 (Xanthine oxidase (XO) [1]; [5]): 8.25 µM | IC50 (Xanthine oxidase (XO) [1]; [6]): 11.1 µM | IC50 (Xanthine oxidase (XO) [1]; [7]): 10.3 µM | IC50 (Xanthine oxidase (XO) [1]; [8]): 9.87 ± 1.19 µM

O=C(NS(=O)(=O)c1ccccc1)N1CCSC1=S [Compound 6i, N-(phenylsulfonyl)-2-thioxothiazolidine-3-carboxamide]
melting point: 121 to 123 °C | IC50 (Xanthine oxidase (XO) [1]; [4]): 5.19 µM | IC50 (Xanthine oxidase (XO) [1]; [5]): 5.19 µM | IC50 (Xanthine oxidase (XO) [1]; [6]): 4.02 µM | IC50 (Xanthine oxidase (XO) [1]; [7]): 6.35 µM | IC50 (Xanthine oxidase (XO) [1]; [8]): 5.19 ± 0.95 µM

S=C1SCCN1c1ccccc1 [Compound 4c, 3-phenyl-thiazolidine-2-thione]
IC50 (Xanthine oxidase (XO) [1]; [4]): 51.6 µM | IC50 (Xanthine oxidase (XO) [1]; [5]): 49.4 µM | IC50 (Xanthine oxidase (XO) [1]; [6]): 52.2 µM | IC50 (Xanthine oxidase (XO) [1]; [7]): 53.3 µM | IC50 (Xanthine oxidase (XO) [1]; [8]): 51.6 ± 1.64 µM

SC1=NCCS1 [Compound 3, thiazolidine-2-thione]
IC50 (Xanthine oxidase (XO) [1]; [4]): 72.2 µM | IC50 (Xanthine oxidase (XO) [1]; [5]): 74.1 µM | IC50 (Xanthine oxidase (XO) [1]; [6]): 72.3 µM | IC50 (Xanthine oxidase (XO) [1]; [7]): 70.1 µM | IC50 (Xanthine oxidase (XO) [1]; [8]): 72.2 ± 1.66 µM

CCNC(=O)N1CCSC1=S [Compound 6a, N-ethyl-2-thioxothiazolidine-3-carboxamide]
IC50 (Xanthine oxidase (XO) [1]; [4]): 22.9 µM | IC50 (Xanthine oxidase (XO) [1]; [5]): 19.9 µM | IC50 (Xanthine oxidase (XO) [1]; [6]): 23.5 µM | IC50 (Xanthine oxidase (XO) [1]; [7]): 25.3 µM | IC50 (Xanthine oxidase (XO) [1]; [8]): 22.9 ± 2.24 µM

CC(C)CNC(=O)N1CCSC1=S [Compound 6d, N-isobutyl-2-thioxothiazolidine-3-carboxamide]
IC50 (Xanthine oxidase (XO) [1]; [4]): 19 µM | IC50 (Xanthine oxidase (XO) [1]; [5]): 21 µM | IC50 (Xanthine oxidase (XO) [1]; [6]): 17.7 µM | IC50 (Xanthine oxidase (XO) [1]; [7]): 18.4 µM | IC50 (Xanthine oxidase (XO) [1]; [8]): 19 ± 1.44 µM

O=C(NCc1ccccc1)N1CCSC1=S [Compound 6f, N-benzyl-2-thioxothiazolidine-3-carboxamide]
melting point: 107 to 109 °C | IC50 (Xanthine oxidase (XO) [1]; [4]): 12.8 µM | IC50 (Xanthine oxidase (XO) [1]; [5]): 12.8 µM | IC50 (Xanthine oxidase (XO) [1]; [6]): 14.8 µM | IC50 (Xanthine oxidase (XO) [1]; [7]): 10.8 µM | IC50 (Xanthine oxidase (XO) [1]; [8]): 12.8 ± 1.6 µM

CCN1CCSC1=S [Compound 4a, 3-ethyl-thiazolidine-2-thione]
IC50 (Xanthine oxidase (XO) [1]; [4]): 43.5 µM | IC50 (Xanthine oxidase (XO) [1]; [5]): 43.4 µM | IC50 (Xanthine oxidase (XO) [1]; [6]): 40.9 µM | IC50 (Xanthine oxidase (XO) [1]; [7]): 46.3 µM | IC50 (Xanthine oxidase (XO) [1]; [8]): 43.5 ± 2.18 µM

O=C(Nc1cccnc1)N1CCSC1=S [Compound 6g, N-(pyridin-3-yl)-2-thioxothiazolidine-3-carboxamide]
melting point: 111 to 113 °C | IC50 (Xanthine oxidase (XO) [1]; [4]): 14.5 µM | IC50 (Xanthine oxidase (XO) [1]; [5]): 17.7 µM | IC50 (Xanthine oxidase (XO) [1]; [6]): 15.1 µM | IC50 (Xanthine oxidase (XO) [1]; [7]): 10.7 µM | IC50 (Xanthine oxidase (XO) [1]; [8]): 14.5 ± 2.9 µM

S=C1SCCN1Cc1ccccc1 [Compound 4d, 3-benzyl-thiazolidine-2-thione]
melting point: 115 to 117 °C | IC50 (Xanthine oxidase (XO) [1]; [4]): 114 µM | IC50 (Xanthine oxidase (XO) [1]; [5]): 122 µM | IC50 (Xanthine oxidase (XO) [1]; [6]): 109 µM | IC50 (Xanthine oxidase (XO) [1]; [7]): 110 µM | IC50 (Xanthine oxidase (XO) [1]; [8]): > 100 µM
